Assay [1] relates to MT4. The assay is described as follows: Concentration required to reduce the viability of mock-infected MT-4 cells by 50%. It is filed as functional. The settings on record: Homo sapiens.
For assay [2], the system named is MT4. The assay can be described thus: Effective concentration against HIV-1 induced cytopathogenicity in MT-4 cells. The format is functional, cell-based. The settings on record: Homo sapiens. A general note: Protection from cytopathic effect is a common read-out in antiviral testing.
Assay [3] has as its target Human immunodeficiency virus type 1 reverse transcriptase (Human immunodeficiency virus 1, UniProt Q72547, L100I). The assay is described as follows: Inhibitory activity against HIV rRT activity in HIV-1 mutant resistant to TIBO(L100I) strain.
For assay [4], the target named is Human immunodeficiency virus type 1 reverse transcriptase (Human immunodeficiency virus 1, UniProt Q72547, Y181C). The assay is described as follows: Inhibitory activity against HIV rRT activity in mutant HIV-1 strain resistant to Nevirapine (Y181C).
Assay [5] concerns the target Human immunodeficiency virus type 1 reverse transcriptase (Human immunodeficiency virus 1, UniProt Q72547). The assay is described as follows: Inhibitory activity against HIV rRT activity in wild type IIIB strain.
Assay [6] addresses Human immunodeficiency virus type 2 pol protein (Human immunodeficiency virus 2, UniProt P88142). The assay is described as follows: Inhibitory activity against HIV rRT activity in HIV-2.
Assay [7] deals with MT4. The assay can be described thus: Selectivity index expressed as the ratio of CC50/ EC50. The format is functional, Homo sapiens.

Human immunodeficiency virus type 2 pol protein, sequence (P88142 whole entry): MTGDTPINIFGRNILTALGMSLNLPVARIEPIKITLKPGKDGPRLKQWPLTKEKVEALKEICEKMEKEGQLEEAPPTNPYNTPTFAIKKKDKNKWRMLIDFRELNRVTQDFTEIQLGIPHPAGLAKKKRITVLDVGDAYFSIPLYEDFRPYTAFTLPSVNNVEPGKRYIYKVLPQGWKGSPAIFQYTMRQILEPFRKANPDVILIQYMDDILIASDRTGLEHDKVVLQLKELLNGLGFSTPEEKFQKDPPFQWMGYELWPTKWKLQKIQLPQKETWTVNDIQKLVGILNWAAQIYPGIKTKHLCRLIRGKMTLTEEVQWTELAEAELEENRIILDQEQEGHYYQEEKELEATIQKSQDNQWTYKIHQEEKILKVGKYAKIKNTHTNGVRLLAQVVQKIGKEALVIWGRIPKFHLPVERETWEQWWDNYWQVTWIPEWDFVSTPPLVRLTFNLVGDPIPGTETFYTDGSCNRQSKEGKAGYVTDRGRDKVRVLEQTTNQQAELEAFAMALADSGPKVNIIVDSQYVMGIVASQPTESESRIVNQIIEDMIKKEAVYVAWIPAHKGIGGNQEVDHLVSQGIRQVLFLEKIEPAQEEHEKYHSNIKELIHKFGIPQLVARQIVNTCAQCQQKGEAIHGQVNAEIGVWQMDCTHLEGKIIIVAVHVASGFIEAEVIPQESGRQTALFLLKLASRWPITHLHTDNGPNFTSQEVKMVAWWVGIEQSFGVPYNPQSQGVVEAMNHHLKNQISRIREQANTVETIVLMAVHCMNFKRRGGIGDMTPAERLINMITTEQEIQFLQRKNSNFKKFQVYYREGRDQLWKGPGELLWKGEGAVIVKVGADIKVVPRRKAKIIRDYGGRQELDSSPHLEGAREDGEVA

Regarding `CCOC(=O)CC(=O)Nc1ccc(Cl)cc1S(=O)(=O)n1cccc1C(=O)OCC`, the CC50 in assay [1] came out at 290 µM. In assay [2], this compound registered an EC50 of 2600 nM. Further, the half-maximal inhibitory concentration (IC50) was more than 20 µM in assay [3], more than 20 µM in assay [4], more than 20000 nM in assay [5] and more than 20 µM in assay [6]. For the same compound, in assay [7], the Ratio amounted to 111.

Consider `CCOC(=O)c1cccn1S(=O)(=O)c1cc(Cl)ccc1NC(=O)CC`, for which the CC50 in assay [1] was more than 300 µM. Besides, the EC50 in assay [2] was 1000 nM. Also, the concentration for half-maximal inhibition (IC50) in assay [3] was more than 20 µM; in assay [4] it was more than 20 µM; in assay [5], more than 20000 nM; in assay [6], more than 20 µM. Besides, the Ratio in assay [7] was more than 300.

On to `C=CCOC(=O)c1cccn1S(=O)(=O)c1cc(Cl)ccc1N`, for which the CC50 in assay [1] is 100 µM. In assay [2], this compound gave an EC50 of 400 nM. Besides, the 50% inhibitory concentration (IC50) was more than 20 µM in assay [3], 14 µM in assay [4], 900 nM in assay [5] and more than 20 µM in assay [6]. In assay [7], the Ratio is reported as 250.

As for `CC(C)OC(=O)c1cccn1S(=O)(=O)c1cc(Cl)ccc1N`, the CC50 in assay [1] was more than 300 µM. A half-maximal response in assay [2] (EC50) required 140 nM. Moreover, the concentration for half-maximal inhibition (IC50) in assay [3] is 14 µM; in assay [4], 8 µM; in assay [5], 270 nM; in assay [6], more than 20 µM. In assay [7], the Ratio was more than 2140.

For the compound `CCOC(=O)c1cccn1S(=O)(=O)c1cc(Cl)ccc1NC(C)=O`, the half-maximal cytotoxic concentration (CC50) in assay [1] was more than 300 µM. The same compound displayed a half-maximal effective concentration (EC50) in assay [2] of 1000 nM. Besides, the IC50 is more than 20 µM in assay [3], more than 20 µM in assay [4], more than 20000 nM in assay [5] and more than 20 µM in assay [6]. In assay [7], the Ratio result is “>=300”.

Turning to `COC(=O)c1cccn1S(=O)(=O)c1cc(Cl)ccc1N`, the half-maximal cytotoxic concentration (CC50) in assay [1] is more than 300 µM. In addition, the response in assay [2] was half-maximal at 180 nM (EC50). For the same compound, the 50% inhibitory concentration (IC50) in assay [3] was 7.4 µM; in assay [4], 6.9 µM; in assay [5], 450 nM; in assay [6], more than 20 µM. The Ratio in assay [7] is on record as more than 1666.

On to `CCCOC(=O)c1cccn1S(=O)(=O)c1cc(Cl)ccc1N`, for which the 50% cytotoxic concentration (CC50) in assay [1] was 110 µM. This compound gave a concentration giving a half-maximal response (EC50) in assay [2] of 220 nM. The half-inhibitory concentration (IC50) was 10 µM in assay [3], 5 µM in assay [4], 400 nM in assay [5] and more than 20 µM in assay [6]. Also, the Ratio in assay [7] stood at 500.

`CCOC(=O)c1cccn1S(=O)(=O)c1cc(Cl)ccc1NC=O` had a CC50 in assay [1] of more than 300 µM. The same compound showed an EC50 in assay [2] of 1000 nM. In addition, the IC50 in assay [3] is more than 20 µM; in assay [4] it was more than 20 µM; in assay [5], more than 20000 nM; in assay [6], more than 20 µM. For the same compound, in assay [7], the Ratio is given as more than 300.

In general, CC50 refers to the concentration at which the toxic effect on the cells reaches its halfway point. The low end stands for harm at low concentration, the high end for better tolerance by the cells. Usually EC50 stands for the concentration that produces a half-maximal response. A high value points to a need for much substance. Usually IC50 stands for the concentration needed to halve the response being measured. A lower IC50 goes with inhibition by little substance.

The values above are taken from ChEMBL document CHEMBL1129665, “2-Sulfonyl-4-chloroanilino moiety: a potent pharmacophore for the anti-human immunodeficiency virus type 1 activity of pyrrolyl aryl sulfones” (J Med Chem, 1996).
